Measured values taken from patent US20240376097A1, “BCL-2 Inhibitor” (BeiGene Ltd., priority 2020, published 2024).
pIC50: −log10 of the molar value. Where two headings read alike, the source gives them in different places.

Tests used:
Format in all cases: binding
[1] = target: Recombinant human Bcl-2 protein (Homo sapiens (Human), UniProt P10415); assay: Bcl-2 TR-FRET Assay
Protocol: Biological Example: Bcl-2 TR-FRET Assay
Compounds disclosed herein were tested for blocking of Bcl-2 protein with its ligand in an assay based on Time-Resolved Fluorescence Resonance Energy Transfer (TR-FRET) methodology. Recombinant human 0.05 nM Bcl-2 protein was pre-incubated with a serial dilution of compounds disclosed herein (top final concentration is 1 uM or 0.1 uM or 0.02 uM or 0.01 uM, 10 points) at room temperature for 0.5 hour in an assay buffer containing 20 mM potassium phosphate buffer, pH 7.5, 50 mM NaCl. 1 mM EDTA, 0.05% Tween-20, 0.01% BSA. Then the FITC labeled Bak peptide Ac-GQVGRQLAIIGDK(FITC)INR-amide (0.5 nM) and MAb Anti 6His Tb cryptate Gold were added to plate and further incubated at room temperature for 1 hour. The TR-FRET signals (337 nm-520 nm-490 nm) were read on BMG PHERAstar FSX instrument. The inhibition percentage of Bcl-2 interaction with its ligand in presence of increasing concentrations of compounds was calculated based on the TR-FRET signals. The IC50 for each compound was derived from fitting the data to the four-parameter logistic equation by Graphpad Prism software or Dotmatics.

[2] = target: recombinant human Bcl-2-G101V protein (Homo sapiens (Human), UniProt P10415, G101V); assay: Bcl-2-G101V TR-FRET Assay; conditions: Bcl-2 G101V mutant, TR-FRET; read-out: Biochemical assay (IC50, nM) Bcl-2 G101V
Protocol: (§1) Biological Example: Bcl-2-G101V TR-FRET Assay
(§2) […]. The TR-FRET signals (ex337 nm, em490 nm/520 nm) were read on BMG PHERAstar FSX instrument. The inhibition percentage of Bcl-2-G101V interaction with its ligand in presence of increasing concentrations of compounds was calculated based on the ratio of fluorescence at 490 nm to that at 520 nm. The IC50 for each compound was derived from fitting the data to the four-parameter logistic equation by Graphpad Prism software or Dotmatics.

[3] = tested on: recombinant human Bcl-2-G101V protein; assay: Bcl-2-G101V TR-FRET Assay; conditions: for Ratio of Bcl-2 G101V/WT: ratio of biochemical IC50 Bcl-2 G101V / Bcl-2 WT
Protocol: as §1, §2

[4] = target: recombinant human Bcl-2 D103Y protein (Homo sapiens (Human), UniProt P10415, D103Y); assay: Bcl-2-D103Y Biochemical Assay (TR-FRET); conditions: for pIC50: TR-FRET, FITC labeled Bak peptide; for Ratio of Bcl-2 D103Y/Bcl-2 WT: ratio of IC50
Protocol: Biological Example: Bcl-2-D103Y Biochemical Assay
as §2, with “Bcl-2 D103Y” for “Bcl-2-G101V”, “by” for “by Graphpad Prism software or”

[5] = Bcl-2 wild type, TR-FRET, read-out: Biochemical assay (IC50, nM) Bcl-2 WT
[6] = wild type Bcl-2, unit inferred, read-out: Bcl-2 WT

Row | Structure (SMILES) | Ratio of Bcl-2 G101V/WT [3] | IC50 [1, 6] [nM] | pIC50 [4] | Ratio of Bcl-2 D103Y/Bcl-2 WT [4] | other results
1 | COc1cc(CN2CCN(C3CC4(CCN(c5ccc(C(=O)NS(=O)(=O)c6ccc(NC[C@H]7CC[C@](C)(O)CC7)c([N+](=O)[O-])c6)c(Oc6cnc7[nH]cc(F)c7c6)c5)CC4)C3)[C@H](c3ccccc3C(C)C)C2)ccc1C(F)(F)F [Example 279] | 3.2 |  |  |  | IC50 [1, 5]: 2 nM; IC50 [2]: 6.3 nM
2 | CC(C)c1ccccc1[C@H]1CN(C(C)C)CCN1C1CC2(CCN(c3ccc(C(=O)NS(=O)(=O)c4ccc(NC[C@H]5CC[C@](C)(O)CC5)c([N+](=O)[O-])c4)c(Oc4cnc5[nH]ccc5c4)c3)CC2)C1 (single isomer, unassigned) [Example 3b, 2-((1H-pyrrolo[2,3-b]pyridin-5-yl)oxy)-N-((4-((((1r,4r)-4-hydroxy-4-methylcyclohexyl)methyl)amino)-3-nitrophenyl)sulfonyl)-4-(2-((R or S)-4-isopropyl-2-(2-isopropylphenyl)piperazin-1-yl)-7-azaspiro[3.5]nonan-7-yl)benzamide] | 16.9 |  |  |  | IC50 [1, 5]: 0.0083 nM; IC50 [2]: 0.14 nM
3 | COc1ccc(CN2CCN(C3CC4(CCN(c5ccc(C(=O)NS(=O)(=O)c6ccc(NC[C@H]7CC[C@](C)(O)CC7)c([N+](=O)[O-])c6)c(Oc6cnc7[nH]ccc7c6)c5)CC4)C3)C(c3cc(Cl)ccc3C(C)C)C2)cc1 (stereo partly shown) [Example 247, 2-((1H-pyrrolo[2,3-b]pyridin-5-yl)oxy)-4-(2-(2-(5-chloro-2-isopropylphenyl)-4-(4-methoxybenzyl)piperazin-1-yl)-7-azaspiro[3.5]nonan-7-yl)-N-((4-((((1r,4r)-4-hydroxy-4-methylcyclohexyl)methyl)amino)-3-nitrophenyl)sulfonyl)benzamide] | 4.2 |  |  |  | IC50 [1, 5]: 0.8 nM; IC50 [2]: 3.3 nM
4 | COc1ccc(CN2CCN(C3CC4(CCN(c5ccc(C(=O)NS(=O)(=O)c6ccc(NCC7CCC(CO)O7)c([N+](=O)[O-])c6)c(Oc6cnc7[nH]ccc7c6)c5)CC4)C3)[C@H](c3ccccc3C(C)C)C2)cc1 (stereo partly drawn) [Example 220, 2-((1H-pyrrolo[2,3-b]pyridin-5-yl)oxy)-N-((4-(((5-(hydroxymethyl)tetrahydrofuran-2-yl)methyl)amino)-3-nitrophenyl)sulfonyl)-4-(2-((R)-2-(2-isopropylphenyl)-4-(4-methoxybenzyl)piperazin-1-yl)-7-azaspiro[3.5]nonan-7-yl) benzamide] |  | 0.044 | 10.11 | 1.8 | 
5 | CC(C)c1ccccc1[C@H]1CN(C2COC2)CCN1C1CC2(CCN(c3ccc(C(=O)NS(=O)(=O)c4ccc(NC[C@H]5CC[C@](C)(O)CC5)c([N+](=O)[O-])c4)c(Oc4cnc5[nH]ccc5c4)c3)CC2)C1 (single isomer, unassigned) [Example 6a, 2-((1H-pyrrolo[2,3-b]pyridin-5-yl)oxy)-N-((4-((((1r,4r)-4-hydroxy-4-methylcyclohexyl)methyl)amino)-3-nitrophenyl)sulfonyl)-4-(2-((S or R)-2-(2-isopropylphenyl)-4-(oxetan-3-yl)piperazin-1-yl)-7-azaspiro[3.5]nonan-7-yl)benzamide] |  |  |  | 13 | 
6 | COc1ccc(C(=O)N2CCN(C3CC4(CCN(c5ccc(C(=O)NS(=O)(=O)c6ccc(NC[C@H]7CC[C@](C)(O)CC7)c([N+](=O)[O-])c6)c(Oc6cnc7[nH]ccc7c6)c5)CC4)C3)C(c3ccccc3C(C)C)C2)cc1 (stereo partly shown) [Example 61, 2-((1H-pyrrolo[2,3-b]pyridin-5-yl)oxy)-N-((4-((((1r,4r)-4-hydroxy-4-methylcyclohexyl)methyl)amino)-3-nitrophenyl)sulfonyl)-4-(2-(2-(2-isopropylphenyl)-4-(4-methoxybenzoyl)piperazin-1-yl)-7-azaspiro[3.5]nonan-7-yl) benzamide] |  |  |  |  | ratio of IC50 of Bcl-2 G101V/Bcl-2 wt, compared with Example F132b in WO2019210828 and ABT-199 (venetoclax) ([3]; comparison in words): much lower
7 | CC(C)c1ccccc1[C@@H]1CN(Cc2cnn(C)c2)CCN1C1CC2(CCN(c3ccc(C(=O)NS(=O)(=O)c4ccc(NC[C@H]5CC[C@](C)(O)CC5)c([N+](=O)[O-])c4)c(Oc4cnc5[nH]ccc5c4)c3)CC2)C1 (single isomer, unassigned) [Example 22a, 2-((1H-pyrrolo[2,3-b]pyridin-5-yl)oxy)-N-((4-((((1r,4r)-4-hydroxy-4-methylcyclohexyl)methyl)amino)-3-nitrophenyl)sulfonyl)-4-(2-((R or S)-2-(2-isopropylphenyl)-4-((1-methyl-1H-pyrazol-4-yl)methyl)piperazin-1-yl)-7-azaspiro [3.5]nonan-7-yl)benzamide] | 8.1 |  |  | 5.2 | ratio of Bcl-2 D103Y/Bcl-2 wt, compared with F91b in WO2019210828 ([4]; comparison in words): significantly lower
8 | CC(C)c1ccccc1C1CN(C(C)C)CCN1C1CC2(CCN(c3ccc(C(=O)NS(=O)(=O)c4ccc(NC[C@H]5CC[C@](C)(O)CC5)c([N+](=O)[O-])c4)c(Oc4cnc5[nH]ccc5c4)c3)CC2)C1 (stereo partly shown) [Example 3, 2-((1H-pyrrolo[2,3-b]pyridin-5-yl)oxy)-N-((4-((((1r,4r)-4-hydroxy-4-methylcyclohexyl)methyl)amino)-3-nitrophenyl)sulfonyl)-4-(2-(4-isopropyl-2-(2-isopropylphenyl)piperazin-1-yl)-7-azaspiro[3.5]nonan-7-yl)benzamide] |  | 0.019 | 9.96 | 11 | 
9 | CC(C)c1ccccc1C1CN(C2COC2)CCN1C1CC2(CCN(c3ccc(C(=O)NS(=O)(=O)c4ccc(NC[C@H]5CC[C@](C)(O)CC5)c([N+](=O)[O-])c4)c(Oc4cnc5[nH]ccc5c4)c3)CC2)C1 (single isomer, unassigned) [Example 6a, 2-((1H-pyrrolo[2,3-b]pyridin-5-yl)oxy)-N-((4-((((1r,4r)-4-hydroxy-4-methylcyclohexyl)methyl)amino)-3-nitrophenyl)sulfonyl)-4-(2-((S or R)-2-(2-isopropylphenyl)-4-(oxetan-3-yl)piperazin-1-yl)-7-azaspiro[3.5]nonan-7-yl)benzamide] |  | 0.0078 | 9.96 |  | 
10 | COc1ccc(CN2CCN(C3CC4(C3)CN(c3ccc(C(=O)NS(=O)(=O)c5ccc(NC[C@H]6CC[C@](C)(O)CC6)c([N+](=O)[O-])c5)c(Oc5cnc6[nH]cc(Cl)c6c5)c3)C4)[C@H](c3ccccc3C(C)C)C2)cc1 [Example 207, 2-((3-chloro-1H-pyrrolo[2,3-b]pyridin-5-yl)oxy)-N-((4-((((1r,4r)-4-hydroxy-4-methylcyclohexyl)methyl)amino)-3-nitrophenyl)sulfonyl)-4-(6-((R)-2-(2-isopropylphenyl)-4-(4-methoxybenzyl)piperazin-1-yl)-2-azaspiro[3.3]heptan-2-yl) benzamide] |  | 0.2 | 9.66 | 1.1 | 
11 | COc1ccc(N(C)C2CCN(C3CC4(CCN(c5ccc(C(=O)NS(=O)(=O)c6ccc(NC[C@H]7CC[C@](C)(O)CC7)c([N+](=O)[O-])c6)c(Oc6cnc7[nH]ccc7c6)c5)CC4)C3)C(c3ccccc3C(C)C)C2)cc1 (stereo partly shown) [Example 150] |  | 0.13 | 9.28 | 4.1 | 
12 | CC(C)c1ccccc1C1CN(Cc2ccc3occc3c2)CCN1C1CC2(CCN(c3ccc(C(=O)NS(=O)(=O)c4ccc(NC[C@H]5CC[C@](C)(O)CC5)c([N+](=O)[O-])c4)c(Oc4cnc5[nH]ccc5c4)c3)CC2)C1 (stereo partly shown) [Example 96, 2-((1H-pyrrolo[2,3-b]pyridin-5-yl)oxy)-4-(2-(4-(benzofuran-5-ylmethyl)-2-(2-isopropylphenyl)piperazin-1-yl)-7-azaspiro[3.5]nonan-7-yl)-N-((4-((((1r,4r)-4-hydroxy-4-methylcyclohexyl)methyl)amino)-3-nitrophenyl)sulfonyl)benzamide] |  | 0.041 | 9.64 | 5.6 | 
